The text below walks through data of article PMC8690933, “Evans blue-modified radiolabeled fibroblast activation protein inhibitor as long-acting cancer therapeutics” (Theranostics, 2022).

pIC50: −log10 of the molar value. “Also recorded” adds a separate entry of the source.

Data set [1] concerns U87MG tumor. The data set is described as follows: Small animal PET imaging in U87MG tumor-bearing mice. As to conditions: 1 h p.i. Format: in vivo. The method, then: All animal studies were approved by the Animal Care and Use Committee of Xiamen University and carried out in compliance with the national laws related to the conduct of animal experimentation. 6-week-old female BALB/c nude mice from Beijing Vital River Laboratory Animal Technology Co., Ltd. were used in this study. The right upper limbs of BALB/c nude mice were subcutaneously inoculated with the suspension of U87MG cells (5 × 10^6 cells in 100 μL of PBS). […] PET scans were performed by using Inveon small-animal PET scanner (Siemens Preclinical Solution). […] At 1 h p.i., the mice were anaesthetized and placed on the bed for PET imaging. […] PET images were reconstructed with attenuation correction and analyzed through drawing regions of interest (ROIs).

A short description of data set [2]: Safety evaluation in the therapy study (body weight, H&E staining of major organs). The data set is classed as in vivo, BALB/c nude mice. On the procedure:
(§1) Two weeks after inoculation of U87MG tumor cells, the average tumor volume reached about 100 mm^3 in BALB/c nude mice. The U87MG tumor-bearing mice were randomly divided into 4 groups (n = 8/group), and subsequently treated with saline, 30 MBq ^177Lu-EB-FAPI-B1, 18.5 MBq ^177Lu-EB-FAPI-B1, 7.4 MBq ^177Lu-EB-FAPI-B1, respectively. Tumor volumes and body weights of all mice were monitored every two days. Individual tumor size was calculated with the formula: length × width^2/2. The mice were euthanized when the tumor volume exceeded 1500 mm^3. Histopathologic staining was performed with an anti-human FAP mAb (ab207178, Abcam). Hematoxylin and eosin (H&E) staining and terminal deoxynucleotidyl transferase-mediated dUTP-biotin nick-end labeling (TUNEL) analysis were carried out using a commercially available kit (Beyotime).

The test system of data set [3] is U87MG tumor. The data set is described as follows: Radioligand therapy study and tumor histopathology in U87MG tumor-bearing mice. Format: in vivo, BALB/c nude mice. On the procedure:
(§2) All animal studies were approved by the Animal Care and Use Committee of Xiamen University and carried out in compliance with the national laws related to the conduct of animal experimentation. 6-week-old female BALB/c nude mice from Beijing Vital River Laboratory Animal Technology Co., Ltd. were used in this study. The right upper limbs of BALB/c nude mice were subcutaneously inoculated with the suspension of U87MG cells (5 × 10^6 cells in 100 μL of PBS). The mice underwent radioligand therapy experiments when the tumor volume reached about 100 mm^3 and small animal SPECT imaging studies when the tumor volume reached about 500 mm^3.
as §1

Data set [4] concerns U87MG tumor. The data set is described as follows: Biodistribution in U87MG tumor-bearing mice at 96 h p.i. Further details: species or system BALB/c nude mice. As to conditions: ex vivo counting. On the procedure: as §2
(§3) In biodistribution study of normal mice, healthy ICR mice (18-20 g) were randomly divided into 6 groups (n = 4/group), injected with radiotracers (740 kBq in 0.1 mL saline) and sacrificed at 0.25, 1, 4, 8, 24 and 48 h p.i. Tissues and organs of interest were collected, wet weighed, and counted by a γ-counter. In addition, BALB/c nude mice bearing U87MG tumors were injected with radiotracers for SPECT imaging, and then, sacrificed at 96 h p.i., the major organs and tumors were collected and weighed. Radioactivity was detected using a γ-counter, and the results were calculated as percentage of injected dose per gram (%ID/g).

The test system of data set [5] is U87MG tumor. Nature of the data set: Small animal SPECT/CT imaging in U87MG tumor-bearing mice. Format: in vivo, BALB/c nude mice. The method, then:
as §2
SPECT/CT imaging studies were performed using a nanoSPECT/CT preclinical scanner (Mediso, Hungary). About 37 MBq of radiotracers were injected intravenously into female ICR mice and U87MG tumor-bearing mice, whole body SPECT images were acquired at 1, 4, 24, 48, 72 and 96 h p.i. The acquisition parameters were as follows: 56.1, 112.9 and 208.4 keV energy peaks for ^177Lu, window width of 20%, matrix of 256 × 256, medium zoom, and 48 frames. Mice were anaesthetized using 1.5% isoflurane to maintain spontaneous breathing during imaging.

Data set [6] in a line: Octanol/water partition coefficient. The data set is classed as physicochemical. The method, then: A detailed scheme of chemical synthesis protocol is elaborated in the supplementary materials. To radiolabel the precursor with ^177Lu, 185-740 MBq of ^177LuCl3 was firstly diluted with 0.2 mL of 0.5 M NH4OAc (pH = 5.5) before incubating with EB-FAPI-Bn (50 μg dissolved in 10 μL dimethyl sulfoxide). The mixture was heated and thoroughly mixed for 30 min at 95 °C. Radiolabeling efficiency and radiochemical purity were tested using thin-layer chromatography (TLC) and high-performance liquid chromatography (HPLC). Radiolabeling of ^68Ga was performed by incubating with 50 μg precursor (pH = 4.5-5.0) at 95 ℃ for 10 min. The ^68Ga-labeled product was purified by C18 column extraction and the radiochemical purity was determined by HPLC. Stability of ^177Lu-EB-FAPI-B1, ^177Lu-EB-FAPI-B2, ^177Lu-EB-FAPI-B3 and ^177Lu-EB-FAPI-B4 (See Figure 1 for the structures) in PBS and saline were monitored up to 24 h using radio-HPLC. More information about radiochemistry, quality control and octanol/water partition coefficient can be found in supplemental information.

The nature of data set [7]: Biodistribution in healthy ICR mice. Format: in vivo. On the procedure: as §3
Another data set has as its system U87MG cells. Nature of the data set: Cell uptake and blocking assay. The data set is classed as cell-based. On the procedure: (§4) U87MG cells were cultivated in Dulbecco modified Eagle medium (DMEM) containing 10% fetal calf serum (FCS) at 37 ℃ in 5% carbon dioxide (CO2). For cell uptake experiment, U87MG cells were seeded in 24-well plates (2 × 10^5/well) overnight. The cells were incubated with 37 kBq of ^177Lu-EB-FAPI series compounds in 0.5 mL of medium for 0.5, 1, 2, 4, 8 and 24 h at 37 °C. In the blocking group, FAPI-02 (10 μg/well) were added as inhibitors of the labeled precursors. For competition assays, U87MG cells were incubated simultaneously with different concentrations (10^-5-10^-11 M) of unlabeled FAPI-02 or EB-FAPI-B1 and ^68Ga-FAPI-02 in 0.4 mL of fresh medium for 1 h. At the corresponding time points, the medium was removed and the cells were washed twice with cold PBS (pH 7.4) and subsequently lysed with 1 mL of NaOH (0.1 M). Cell lysates was collected and the radioactivity was determined using a γ-counter. The cell uptake experiment was repeated four times for each time point and the competition assays were repeated three times at different concentrations.

Data set [8] can be described thus: In vitro stability in PBS and saline (radio-HPLC/TLC). Format: physicochemical.
The next data set concerns the target T1, FAP (Homo sapiens, UniProt Q12884).
T1 construct: endogenous in cells; host or cells: U87MG cells
T1 sequence (Q12884 1-760): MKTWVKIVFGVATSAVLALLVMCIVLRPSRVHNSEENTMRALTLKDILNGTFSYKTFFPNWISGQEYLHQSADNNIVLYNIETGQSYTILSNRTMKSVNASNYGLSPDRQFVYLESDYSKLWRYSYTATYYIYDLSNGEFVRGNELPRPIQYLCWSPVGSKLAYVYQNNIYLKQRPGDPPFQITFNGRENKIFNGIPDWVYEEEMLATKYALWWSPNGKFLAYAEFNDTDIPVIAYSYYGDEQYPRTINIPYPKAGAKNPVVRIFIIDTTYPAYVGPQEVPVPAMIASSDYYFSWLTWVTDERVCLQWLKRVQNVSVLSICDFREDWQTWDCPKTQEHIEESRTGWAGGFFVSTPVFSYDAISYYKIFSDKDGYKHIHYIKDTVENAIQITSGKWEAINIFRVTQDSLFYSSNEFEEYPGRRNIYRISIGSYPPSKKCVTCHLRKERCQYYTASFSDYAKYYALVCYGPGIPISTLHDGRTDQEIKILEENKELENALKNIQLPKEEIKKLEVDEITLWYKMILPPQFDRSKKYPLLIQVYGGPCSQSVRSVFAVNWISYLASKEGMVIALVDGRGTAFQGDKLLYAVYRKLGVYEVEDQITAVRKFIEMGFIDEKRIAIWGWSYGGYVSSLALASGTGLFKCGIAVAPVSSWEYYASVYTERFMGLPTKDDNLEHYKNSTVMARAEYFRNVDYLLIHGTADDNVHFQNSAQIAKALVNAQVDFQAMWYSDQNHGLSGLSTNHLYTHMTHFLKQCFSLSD
Nature of the data set: Competition assay against ^68Ga-FAPI-02 in U87MG cells. As to conditions: unlabeled ligand competing with ^68Ga-FAPI-02, 1 h, read-out: IC50 (binding affinity to FAP in vitro). The method, then: as §4

Where [9] appears, read: SPECT, value given with the increase from 24 h to 96 h p.i.

In the data set on U87MG tumor [1], `N#C[C@@H]1CCCN1C(=O)CNC(=O)c1ccnc2ccc(OCCCN3CCN(C(=O)CN4CCN(CC(=O)[O-])CCN(CC(=O)[O-])CCN(CC(=O)[O-])CC4)CC3)cc12.[68Ga+3]` [^68Ga-FAPI-02, reference compound] came in with a tumor uptake value of 0.85 ± 0.21 %ID/g. In addition, the “tumor uptake in the presence of the blocking agent EB-FAPI-B1” value with U87MG tumor [1] (unlabeled EB-FAPI-B1 as competitor) was “decreased more than half”.
In the case of `Cc1cc(-c2ccc(NC(=O)C(CCCCNC(=O)CCC(=O)N3CCN(CCCOc4ccc5nccc(C(=O)NCC(=O)N6CCC[C@H]6C#N)c5c4)CC3)NC(=O)CN3CCN(CC(=O)[O-])CCN(CC(=O)[O-])CCN(CC(=O)[O-])CC3)c(C)c2)ccc1N=Nc1ccc2c(S(=O)(=O)O)cc(S(=O)(=O)O)c(N)c2c1O.[177Lu+3]` (some centres unmarked) [^177Lu-EB-FAPI-B1], the body weight change result in data set [2] (all treatment groups (30, 18.5, 7.4 MBq)) was “slight body weight loss”. Also, the “H&E staining of major organs (safety evaluation)” value in data set [2] (heart, liver, spleen, lung, kidneys after treatment) is “negligible side effect; also recorded: no distinct tissue damage”. In the data set with U87MG tumor [3] (18.5 MBq group versus saline group), the “TUNEL staining of excised tumor” value is listed as “remarkably more cell apoptosis”. Moreover, in the data set with U87MG tumor [3] (single dose of 30, 18.5 or 7.4 MBq (all three doses), day 0 to day 22), the relative tumor size result was “no more than 5”. In the data set with U87MG tumor [3] (single dose of 30 MBq, 18.5 MBq or 7.4 MBq), the “tumor growth compared to the saline group” value was “noteworthy tumor growth inhibitions; also recorded: noteworthy tumor growth delay”. The “H&E staining of excised tumor” value with U87MG tumor [3] (treatment groups versus saline group) was “large necrotic areas”. Besides, the tumor uptake with U87MG tumor [4] worked out at 12.42 ± 1.54 %ID/g. Further, the “tumor uptake on SPECT images” value in the data set on U87MG tumor [5] (4 h p.i.) is reported as “obvious tumor uptake was observed”. Further, the “tumor-to-muscle ratio (T/M)” value in the data set with U87MG tumor [5] (SPECT, 24 h p.i.) was 12.29 ± 0.85. For the same compound, the “tumor-to-muscle ratio (T/M), peak” value in the data set with U87MG tumor [5] (SPECT, 72 h p.i.) amounted to 18.67 ± 3.75. The “tumor-to-muscle ratio (T/M)” value in the data set on U87MG tumor [5] (SPECT, 96 h p.i.) worked out at 14.15 ± 0.13. In the data set on U87MG tumor [5] (setting [9]), the “tumor-to-heart ratio (T/H)” value is listed as 14.28 ± 2.46, the “tumor-to-kidney ratio (T/K)” value is given as 2.35 ± 0.61 and the “tumor-to-liver ratio (T/L)” value amounted to 3.73 ± 1.21. In addition, the “Octanol/water partition coefficient (Log P)” value in data set [6] is -1.90 ± 0.12. The compound further gave a blood uptake in [7] (4 h p.i.) of 21.93 ± 2.13 %ID/g. Further, the “kidney uptake (highest value)” value in [7] (8 h p.i.) was determined as 16.38 ± 2.98 %ID/g. For the same compound, the kidney uptake in [7] (48 h p.i.) was found to be 8.13 ± 1.36 %ID/g. Moreover, the “cellular uptake with blocking by unlabeled inhibitor” value with U87MG cells (blocking group) is reported as 2.25 ± 0.14%. The highest cellular uptake in the data set on U87MG cells (incubation for 24 h) is 9.97 ± 0.42%. In addition, the “time stable in PBS (pH 7.4) and saline” value in data set [8] (PBS (pH 7.4) and saline) is “at least 24 h”. Moreover, the “radiochemistry purity after incubation” value in [8] (PBS and saline, at 24 h and 48 h) was “over 95%”.
In the case of `N#C[C@@H]1CCCN1C(=O)CNC(=O)c1ccnc2ccc(OCCCN3CCN(C(=O)CN4CCN(CC(=O)[O-])CCN(CC(=O)[O-])CCN(CC(=O)[O-])CC4)CC3)cc12.[177Lu+3]` [^177Lu-FAPI-02, reference compound], in data set [7] (4 h p.i.), the “blood accumulation relative to ^177Lu-EB-FAPI-B1” value is “about 1%” and the blood uptake is listed as 0.23 ± 0.06 %ID/g.
As to `Cc1cc(-c2ccc(NC(=O)C(CCCCNC(=O)CCC(=O)N3CCN(CCCOc4ccc5nccc(C(=O)NCC(=O)N6CCC[C@H]6C#N)c5c4)CC3)NC(=O)CN3CCN(CC(=O)[O-])CCN(CC(=O)[O-])CCN(CC(=O)[O-])CC3)c(C)c2)ccc1N=Nc1ccc2c(S(=O)(=O)O)cc(S(=O)(=O)O)c(N)c2c1O.[68Ga+3]` (some centres unmarked) [^68Ga-EB-FAPI-B1], in the data set on U87MG tumor [1], the “T/M ratio compared with ^68Ga-FAPI-02” value was “higher T/M ratio” and the tumor uptake value is listed as 3.5 ± 0.22 %ID/g.
By pIC50 is commonly meant the IC50 on a negative log10 scale, so that one unit is a factor of ten. As for `N#C[C@@H]1CCCN1C(=O)CNC(=O)c1ccnc2ccc(OCCCN3CCN(C(=O)CN4CCN(CC(=O)O)CCN(CC(=O)O)CCN(CC(=O)O)CC4)CC3)cc12` [FAPI-02], the pIC50 at FAP is 7.96.
